In US11760761B2, “Methods and compositions for targeting PD-L1” (Aligos Therapeutics, Inc., priority 2020, dated 2023):

Key:
PDL1/PD1 = PDL1/PD1 (Homo sapiens (Human), UniProt Q9NZQ7); assay: PDL1/PD1 Binding Assay; conditions: PDL1-6xHis 0.3 nM, PD1-Fc-Avi-Biotin 2.5 nM, Acceptor/Donor beads; read-out: PD-1/PD-L1 PPI IC50
Description: Compounds to be tested were serially diluted in DMSO, and further diluted in assay buffer (25 mM Hepes pH 7.4, 150 mM NaCl, 0.005% Tween 20, BSA 0.01%). Diluted compounds were added to the wells with final concentration of DMSO at 1%. PDL1-6×His protein was added to the wells, mixed well with compound. The plates were incubated for 30 min at room temperature. PD1-Fc-Avi-Biotin protein was added to the wells. Final concentration of PDL1 and PD1 protein is 0.3 nM and 2.5 nM, respectively. After a binding time of 30 min at room temperature, Anti-6×His Acceptor beads (final concentration 20 ug/ml) were added to the wells, and the incubation continued for 1 h. Streptavidin Donor beads (final concentration 20 ug/mL) were added at reduced light. The plates were sealed with foil and incubated in the dark for additional 1 h or overnight before reading on an Envision reader. The IC50 values were determined by fitting the curves using a four-parameter equation in Graphpad Prism 8.

PD-1/PD-L1 interaction = PD-1/PD-L1 interaction (Homo sapiens (Human), UniProt Q9NZQ7); assay: PD-1/PD-L1 NFAT Reporter Assay (Jurkat T cells / PD-L1 expressing CHO cells co-culture); assay type: cell-based; conditions: for EC50: co-culture 6 hrs at 37° C., luciferase; for Emax: Jurkat, maximum NFAT-activation level relative to the positive control (10 nM Atezolizumab)
Chain of PD-1/PD-L1 interaction (Q9NZQ7 19-290): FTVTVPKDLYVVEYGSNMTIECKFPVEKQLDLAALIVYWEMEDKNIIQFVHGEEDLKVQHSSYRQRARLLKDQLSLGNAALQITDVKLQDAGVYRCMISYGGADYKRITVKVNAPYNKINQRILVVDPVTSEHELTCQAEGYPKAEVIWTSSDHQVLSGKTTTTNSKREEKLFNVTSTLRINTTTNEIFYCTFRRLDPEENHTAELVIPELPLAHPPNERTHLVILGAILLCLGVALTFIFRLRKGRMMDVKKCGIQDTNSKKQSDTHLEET
Description: Blocking the PD-1/PD-L1 interaction will release the inhibitory signal and results in TCR signaling and NFAT-mediated luciferase activity.
CHO cells expressing surface-bound anti-CD3 antibodies and PD-L1 were first seeded overnight and treated with the compounds. Jurkat cells overexpressing PD-1 and a luciferase construct under NF-AT promoter were then immediately seeded on the monolayer of CHO cells. The co-culture was then incubated for 6 hrs at 37° C. Luciferase activity was assessed by adding the ONE-Glo reagent and measuring luminescence with a plate reader. EC50s values were determined from the fit of the dose-response curves Emax (%) corresponds to the maximum NFAT-activation level reached by a given compound relative to the positive control (10 nM Atezolizumab).

Chain of PDL1/PD1 (Q9NZQ7 19-238): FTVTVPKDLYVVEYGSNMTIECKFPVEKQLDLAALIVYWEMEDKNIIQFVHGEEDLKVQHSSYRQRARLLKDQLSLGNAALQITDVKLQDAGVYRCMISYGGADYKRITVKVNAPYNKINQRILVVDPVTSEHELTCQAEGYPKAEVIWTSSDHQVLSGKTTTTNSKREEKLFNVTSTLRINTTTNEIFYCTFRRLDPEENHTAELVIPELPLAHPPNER

SMILES | IC50 (PDL1/PD1) | EC50 (PD-1/PD-L1 interaction) | Emax (PD-1/PD-L1 interaction)
COc1cc(-c2cccc(-c3cccc(-c4cnc(CN5CC6(CCC(=O)N6)C5)c(OC)n4)c3Cl)c2Cl)cc2c1C[C@H](N1CC(O)C1)C2 (single isomer, unassigned) [Compound A-11] | ≤ 10 nM | 1000 to 10000 nM | 84%
COc1nc(-c2cccc(-c3cccc(-c4cc5c(c(OCc6ccccn6)n4)C(NC[C@@H]4CCC(=O)N4)CC5)c3Cl)c2Cl)cnc1CN1CC2(CCC(=O)N2)C1 (some centres unmarked) [Compound C-15] | ≤ 10 nM | 10 to 100 nM | –
COc1cc(-c2cccc(-c3cccc(-c4cnc(CN5CC6(CCC(=O)N6)C5)c(OC)n4)c3Cl)c2Cl)cc2c1[C@H](N1CC(C(=O)O)C1)CC2 (single isomer, unassigned) [Compound B-4] | ≤ 10 nM | 1000 to 10000 nM | 65%
COc1cc(-c2cccc(-c3cccc(-c4cnc(CN5CC6(CCC(=O)N6)C5)c(OC)n4)c3Cl)c2Cl)cc2c1[C@@H](N1CC3(CCC(=O)N3)C1)CC2 (single isomer, unassigned) [Compound A-7] | ≤ 10 nM | – | 24%
COc1nc(-c2cccc(-c3cccc(-c4cc5c(c(OCC6CC6)n4)C(NC[C@@H]4CCC(=O)N4)CC5)c3Cl)c2Cl)cnc1CN1CC2(CCC(=O)N2)C1 (some centres unmarked) [Compound C-14] | ≤ 10 nM | 10 to 100 nM | –
COc1cc(-c2cccc(-c3cccc(-c4cnc(CN5CC6(CCC(=O)N6)C5)c(OC)n4)c3Cl)c2Cl)cc2c1C[C@@H](N1CC(O)C1)C2 (single isomer, unassigned) [Compound A-10] | ≤ 10 nM | 10 to 100 nM | 172%
COc1nc(-c2cccc(-c3cccc(-c4cc5c(c(OC)n4)[C@@H](N4CC(O)C4)CC5)c3Cl)c2Cl)cnc1CN1CC2(CCC(=O)N2)C1 (single isomer, unassigned) [Compound C-5] | ≤ 10 nM | ≤ 10 nM | –
COc1nc(-c2cccc(-c3cccc(-c4cc5c(c(OC)n4)C(N4CCC(F)(F)C4)CC5)c3Cl)c2Cl)cnc1CN1CC2(CCC(=O)N2)C1 (centres unmarked) [Compound C-9] | ≤ 10 nM | 100 to 1000 nM | –
CCOC(=O)C1CN([C@H]2CCc3cc(-c4cccc(-c5cccc(-c6cnc(CN7CC8(CCC(=O)N8)C7)c(OC)n6)c5Cl)c4Cl)cc(OC)c32)C1 (single isomer, unassigned) [Compound A-3] | ≤ 10 nM | 100 to 1000 nM | 84%
CCOc1nc(-c2cccc(-c3cccc(-c4cnc(CN5CC6(CCC(=O)N6)C5)c(OC)n4)c3Cl)c2Cl)cc2c1C(NC[C@@H]1CCC(=O)N1)CC2 (some centres unmarked) [Compound C-12] | ≤ 10 nM | 10 to 100 nM | –
COc1cc(-c2cccc(-c3cccc(-c4cnc(CN5CC6(CCC(=O)N6)C5)c(OC)n4)c3Cl)c2Cl)cc2c1C[C@H](N1CC3(CCC(=O)N3)C1)C2 (single isomer, unassigned) [Compound A-13] | ≤ 10 nM | 1000 to 10000 nM | 58%
COc1cc(-c2cccc(-c3cccc(-c4cnc(CN5CC6(CCC(=O)N6)C5)c(OC)n4)c3Cl)c2Cl)cc2c1[C@@H](N1CC(C(=O)O)C1)CC2 (single isomer, unassigned) [Compound B-3] | ≤ 10 nM | 100 to 1000 nM | 112%
COc1nc(-c2cccc(-c3cccc(-c4cc5c(c(OC)n4)C(NC[C@H]4CCC(=O)N4)CC5)c3Cl)c2Cl)cnc1CN1CC2(CCC(=O)N2)C1 (some centres unmarked) [Compound C-7] | ≤ 10 nM | 10 to 100 nM | –

Continued, values first:

IC50 (PDL1/PD1) | EC50 (PD-1/PD-L1 interaction) | Emax (PD-1/PD-L1 interaction) | SMILES
≤ 10 nM | 10 to 100 nM | – | COc1nc(-c2cccc(-c3cccc(-c4cc5c(c(OC)n4)[C@@H](N4CC(C(=O)O)C4)CC5)c3Cl)c2Cl)cnc1CN1C[C@@H](O)[C@@H]1C (single isomer, unassigned) [Compound H-5]
≤ 10 nM | > 10000 nM | – | COc1nc(-c2cccc(-c3cccc(-c4cc5c(c(OC)n4)[C@@H](N4CC6(CN(C(C)=O)C6)C4)CC5)c3Cl)c2Cl)cnc1CN1CC2(C1)CN(C(C)=O)C2 (single isomer, unassigned) [Compound D-18]
≤ 10 nM | 1000 to 10000 nM | – | COc1nc(-c2cccc(-c3cccc(-c4cc5c(c(OC)n4)[C@H](NC[C@@H]4CCC(=O)N4)CC5)c3Cl)c2Cl)cnc1CN1CC(OC)C1 [Compound D-10]
≤ 10 nM | ≤ 10 nM | – | COc1nc(-c2cccc(-c3cccc(-c4cc5c(c(OC)n4)[C@@H](NC[C@@H]4CCC(=O)N4)CC5)c3Cl)c2Cl)cnc1CN1CC(O)C1 [Compound D-8]
≤ 10 nM | 1000 to 10000 nM | – | CCOC(=O)C1CN([C@@H]2CCc3cc(-c4cccc(-c5cccc(-c6cnc(CN7CC(OC)C7)c(OC)n6)c5Cl)c4Cl)nc(OC)c32)C1 (single isomer, unassigned) [Compound G-6]
≤ 10 nM | 10 to 100 nM | – | COc1nc(-c2cccc(-c3cccc(-c4cc5c(c(OC)n4)[C@@H](NC[C@@H]4CCC(=O)N4)CC5)c3Cl)c2Cl)cnc1CN1CC(F)(F)C1 [Compound D-5]
≤ 10 nM | 10 to 100 nM | – | COc1nc(-c2cccc(-c3cccc(-c4cc5c(c(OC)n4)C(N4CCC[C@H](C(=O)O)C4)CC5)c3Cl)c2Cl)cnc1CN1CC(O)C1 (some centres unmarked) [Compound F-2]
≤ 10 nM | 10 to 100 nM | – | COc1nc(-c2cccc(-c3cccc(-c4cc5c(c(OC)n4)[C@H](N4CC6(CN(C(C)=O)C6)C4)CC5)c3Cl)c2Cl)cnc1CNC[C@@H]1CCC(=O)N1 (single isomer, unassigned) [Compound D-17]
≤ 10 nM | 10 to 100 nM | – | COc1nc(-c2cccc(-c3cccc(-c4cc5c(c(OC)n4)CCN(CC(=O)O)C5)c3Cl)c2Cl)cnc1CN1CC(C)(O)C1 [Compound J-2]
≤ 10 nM | ≤ 10 nM | – | COc1nc(-c2cccc(-c3cccc(-c4cc5c(c(OC)n4)[C@@H](NC[C@@H]4CCC(=O)N4)CC5)c3Cl)c2Cl)cnc1CN1CC2(CCCO2)C1 [Compound D-3]
≤ 10 nM | ≤ 10 nM | – | COc1nc(-c2cccc(-c3cccc(-c4cc5c(c(OC)n4)[C@@H](NC[C@@H]4CCC(=O)N4)CC5)c3Cl)c2Cl)ccc1CN1CC2(CCC(=O)N2)C1 [Compound E-3]
≤ 10 nM | 100 to 1000 nM | – | COc1nc(-c2cccc(-c3cccc(-c4cc5c(c(OC)n4)[C@H](N4CC(C(=O)O)C4)CC5)c3Cl)c2Cl)cnc1CN1C[C@@H](O)[C@@H]1C (single isomer, unassigned) [Compound H-6]
≤ 10 nM | 10 to 100 nM | – | COc1nc(-c2cccc(-c3cccc(-c4cc5c(c(OC)n4)[C@@H](NC[C@@H]4CCC(=O)N4)CC5)c3Cl)c2Cl)cnc1CN1CC(F)C1 [Compound D-4]
≤ 10 nM | 10 to 100 nM | – | CCOC(=O)C1CN([C@H]2CCc3cc(-c4cccc(-c5cccc(-c6cnc(CN7CC(OC)C7)c(OC)n6)c5Cl)c4Cl)nc(OC)c32)C1 (single isomer, unassigned) [Compound G-5]
≤ 10 nM | ≤ 10 nM | – | COc1nc(-c2cccc(-c3cccc(-c4cc5c(c(OC)n4)[C@@H](NC[C@@H]4CCC(=O)N4)CO5)c3Cl)c2Cl)cc(C)c1CN1CC2(C1)CN(C(C)=O)C2 (single isomer, unassigned) [Compound E-4]
≤ 10 nM | ≤ 10 nM | – | COc1nc(-c2cccc(-c3cccc(-c4cc5c(c(OC)n4)[C@H](N4CC6(CN(C(C)=O)C6)C4)CC5)c3Cl)c2Cl)cnc1CN1CC2(C1)CN(C(C)=O)C2 (single isomer, unassigned) [Compound D-19]
≤ 10 nM | 100 to 1000 nM | – | COc1nc(-c2cccc(-c3cccc(-c4cc5c(c(OC)n4)[C@H](NC[C@@H]4CCC(=O)N4)CC5)c3Cl)c2Cl)cnc1CN1CC(O)C1 [Compound D-7]
≤ 10 nM | 1000 to 10000 nM | – | COc1nc(-c2cccc(-c3cccc(-c4cc5c(c(OC)n4)CCN(CC(=O)O)C5)c3Cl)c2Cl)cnc1CN1CC(O)(C(F)(F)F)C1 [Compound J-3]
≤ 10 nM | 10 to 100 nM | – | COc1nc(-c2cccc(-c3cccc(-c4cc5c(c(OC)n4)[C@@H](N4CC6(CCC(=O)N6)C4)CC5)c3Cl)c2Cl)cnc1CNC[C@@H]1CCC(=O)N1 (single isomer, unassigned) [Compound D-15]
≤ 10 nM | ≤ 10 nM | – | COc1nc(-c2cccc(-c3cccc(-c4cc5c(c(OC)n4)[C@@H](NC[C@@H]4CCC(=O)N4)CC5)c3Cl)c2Cl)cnc1CN1CCCC1 [Compound D-11]
≤ 10 nM | ≤ 10 nM | – | COc1nc(-c2cccc(-c3cccc(-c4cc5c(c(OC)n4)[C@@H](N4CC6(CCC(=O)N6)C4)CC5)c3Cl)c2Cl)cnc1CN1CC2(C1)CN(C(C)=O)C2 (single isomer, unassigned) [Compound D-14]
